# Source: ChEMBL document CHEMBL4049462, “Synthesis and Biological Evaluation of Novel Neuroprotective Pyridazine Derivatives as Excitatory Amino Acid Transporter 2 (EAAT2) Activators” (2017)
# Columns and labels:
# Type in all cases: functional
# Rattus norvegicus [1] = experiment: Antiallodynic activity in oxaliplatin-induced Sprague-Dawley rat allodynia model assessed as paw withdrawal latency time at 3 mg/kg, sc administered daily up to day 13 measured on day 14 post last dose by cold plate test (reference value: 12 +/- 1.2 secs)
# Rattus norvegicus [2] = experiment: Antihypersensitivity in oxaliplatin-induced Sprague-Dawley rat thermal hyperalgesia model assessed as paw withdrawal latency time at 3 mg/kg, sc administered daily up to day 13 measured on day 14 post last dose by plantar test (reference value: 10.6 +/- 0.5 secs)
# Rattus norvegicus [3] = experiment: Antiallodynic activity in oxaliplatin-induced Sprague-Dawley rat allodynia model assessed as increase in paw withdrawal latency time at 3 mg/kg, sc administered daily up to day 13 measured on day 14 post last dose by Von Frey test relative to control
# Rattus norvegicus [4] = experiment: Antihypersensitivity in oxaliplatin-induced Sprague-Dawley rat hyperalgesia model assessed as increase in weight tolerated on posterior paw at 3 mg/kg, sc administered daily for 14 days post oxaliplatin challenge measured on day 14 post last dose by analgesimeter relative to control
# Rattus norvegicus [5] = experiment: Antiallodynic activity in oxaliplatin-induced Sprague-Dawley rat allodynia model assessed as paw withdrawal latency time at 3 mg/kg, sc administered daily up to day 6 measured on day 7 post last dose by cold plate test (reference value: 14.3 +/- 0.3 secs)
# Rattus norvegicus [6] = experiment: Antiallodynic activity in oxaliplatin-induced Sprague-Dawley rat allodynia model assessed as increase in paw withdrawal latency time at 3 mg/kg, sc administered daily up to day 6 measured on day 7 post last dose by Von Frey test relative to control
# Rattus norvegicus [7] = experiment: Antihypersensitivity in oxaliplatin-induced Sprague-Dawley rat hyperalgesia model assessed as increase in weight tolerated on posterior paw at 3 mg/kg, sc administered daily for 7 days post oxaliplatin challenge measured on day 7 post last dose by analgesimeter relative to control
# Rattus norvegicus [8] = experiment: Antihypersensitivity in oxaliplatin-induced Sprague-Dawley rat thermal hyperalgesia model assessed as paw withdrawal latency time at 3 mg/kg, sc administered daily up to day 6 measured on day 7 post last dose by plantar test (reference value: 9 +/- 1 secs)
# Rattus norvegicus [9] = experiment: Antihypersensitivity in oxaliplatin-induced Sprague-Dawley rat thermal hyperalgesia model assessed as paw withdrawal latency time at 3.43 mg/kg, sc administered daily up to day 6 measured on day 7 post last dose by plantar test (reference value: 9 +/- 1 secs)
# Rattus norvegicus [10] = experiment: Antihypersensitivity in oxaliplatin-induced Sprague-Dawley rat thermal hyperalgesia model assessed as paw withdrawal latency time at 3.43 mg/kg, sc administered daily up to day 13 measured on day 14 post last dose by plantar test (reference value: 10.6 +/- 0.5 secs)
# Rattus norvegicus [11] = experiment: Antiallodynic activity in oxaliplatin-induced Sprague-Dawley rat allodynia model assessed as paw withdrawal latency time at 3.43 mg/kg, sc administered daily up to day 13 measured on day 14 post last dose by cold plate test (reference value: 12 +/- 1.2 secs)
# Rattus norvegicus [12] = experiment: Antihypersensitivity in oxaliplatin-induced Sprague-Dawley rat hyperalgesia model assessed as increase in weight tolerated on posterior paw at 3.43 mg/kg, sc administered daily up to day 13 measured on day 14 post last dose by analgesimeter relative to control
# Rattus norvegicus [13] = experiment: Antiallodynic activity in oxaliplatin-induced Sprague-Dawley rat allodynia model assessed as paw withdrawal latency time at 3.43 mg/kg, sc administered daily up to day 6 measured on day 7 post last dose by Von Frey test (reference value: 12.4 +/- 1.2 secs)
# Rattus norvegicus [14] = experiment: Antiallodynic activity in oxaliplatin-induced Sprague-Dawley rat allodynia model assessed as paw withdrawal latency time at 3.43 mg/kg, sc administered daily up to day 6 measured on day 7 post last dose by cold plate test (reference value: 14.3 +/- 0.3 secs)
# Rattus norvegicus [15] = experiment: Antihypersensitivity in oxaliplatin-induced Sprague-Dawley rat hyperalgesia model assessed as weight tolerated on posterior paw at 3.43 mg/kg, sc administered daily for 7 days post oxaliplatin challenge measured on day 7 post last dose by analgesimeter (reference value: 46.1 +/- 0.5 g)
# Rattus norvegicus [16] = experiment: Antiallodynic activity in oxaliplatin-induced Sprague-Dawley rat allodynia model assessed as paw withdrawal latency time at 3.37 mg/kg, sc administered daily up to day 6 measured on day 7 post last dose by Von Frey test (reference value: 12.4 +/- 1.2 secs)
# Rattus norvegicus [17] = experiment: Antihypersensitivity in oxaliplatin-induced Sprague-Dawley rat thermal hyperalgesia model assessed as paw withdrawal latency time at 3.37 mg/kg, sc administered daily up to day 13 measured on day 14 post last dose by plantar test (reference value: 10.6 +/- 0.5 secs)
# Rattus norvegicus [18] = experiment: Antihypersensitivity in oxaliplatin-induced Sprague-Dawley rat hyperalgesia model assessed as increase in weight tolerated on posterior paw at 3.37 mg/kg, sc administered daily up to day 13 measured on day 14 post last dose by analgesimeter relative to control
# Rattus norvegicus [19] = experiment: Antiallodynic activity in oxaliplatin-induced Sprague-Dawley rat allodynia model assessed as increase in paw withdrawal latency time at 3.43 mg/kg, sc administered daily up to day 13 measured on day 14 post last dose by Von Frey test relative to control
# Rattus norvegicus [20] = experiment: Antiallodynic activity in oxaliplatin-induced Sprague-Dawley rat allodynia model assessed as paw withdrawal latency time at 3.37 mg/kg, sc administered daily up to day 6 measured on day 7 post last dose by cold plate test (reference value: 14.3 +/- 0.3 secs)
# Rattus norvegicus [21] = experiment: Antihypersensitivity in oxaliplatin-induced Sprague-Dawley rat hyperalgesia model assessed as weight tolerated on posterior paw at 3.37 mg/kg, sc administered daily for 7 days post oxaliplatin challenge measured on day 7 post last dose by analgesimeter (reference value: 46.1 +/- 0.5 g)
# Rattus norvegicus [22] = experiment: Antiallodynic activity in oxaliplatin-induced Sprague-Dawley rat allodynia model assessed as paw withdrawal latency time at 3.37 mg/kg, sc administered daily up to day 13 measured on day 14 post last dose by cold plate test (reference value: 12 +/- 1.2 secs)
# Rattus norvegicus [23] = experiment: Antihypersensitivity in oxaliplatin-induced Sprague-Dawley rat thermal hyperalgesia model assessed as paw withdrawal latency time at 3.37 mg/kg, sc administered daily up to day 6 measured on day 7 post last dose by plantar test (reference value: 9 +/- 1 secs)
# Rattus norvegicus [24] = experiment: Antiallodynic activity in oxaliplatin-induced Sprague-Dawley rat allodynia model assessed as increase in paw withdrawal latency time at 3.37 mg/kg, sc administered daily up to day 13 measured on day 14 post last dose by Von Frey test relative to control
# Rattus norvegicus [25] = experiment: Antiallodynic activity in oxaliplatin-induced Sprague-Dawley rat allodynia model assessed as paw withdrawal latency time at 3.28 mg/kg, sc administered daily up to day 13 measured on day 14 post last dose by Von Frey test (reference value: 11.6 +/- 0.5 secs)
# Rattus norvegicus [26] = experiment: Antiallodynic activity in oxaliplatin-induced Sprague-Dawley rat allodynia model assessed as paw withdrawal latency time at 3.28 mg/kg, sc administered daily up to day 6 measured on day 7 post last dose by cold plate test (reference value: 14.3 +/- 0.3 secs)
# Rattus norvegicus [27] = experiment: Antiallodynic activity in oxaliplatin-induced Sprague-Dawley rat allodynia model assessed as paw withdrawal latency time at 3.28 mg/kg, sc administered daily up to day 13 measured on day 14 post last dose by cold plate test (reference value: 12 +/- 1.2 secs)
# Rattus norvegicus [28] = experiment: Antihypersensitivity in oxaliplatin-induced Sprague-Dawley rat hyperalgesia model assessed as weight tolerated on posterior paw at 3.28 mg/kg, sc administered daily for 7 days post oxaliplatin challenge measured on day 7 post last dose by analgesimeter (reference value: 46.1 +/- 0.5 g)
# Rattus norvegicus [29] = experiment: Antihypersensitivity in oxaliplatin-induced Sprague-Dawley rat thermal hyperalgesia model assessed as paw withdrawal latency time at 3.28 mg/kg, sc administered daily up to day 6 measured on day 7 post last dose by plantar test (reference value: 9 +/- 1 secs)
# Rattus norvegicus [30] = experiment: Antihypersensitivity in oxaliplatin-induced Sprague-Dawley rat hyperalgesia model assessed as weight tolerated on posterior paw at 3.28 mg/kg, sc administered daily up to day 13 measured on day 14 post last dose by analgesimeter (reference value: 44.7 +/- 1.2 g)
# Rattus norvegicus [31] = experiment: Antihypersensitivity in oxaliplatin-induced Sprague-Dawley rat thermal hyperalgesia model assessed as paw withdrawal latency time at 3.28 mg/kg, sc administered daily up to day 13 measured on day 14 post last dose by plantar test (reference value: 10.6 +/- 0.5 secs)
# Rattus norvegicus [32] = experiment: Antiallodynic activity in oxaliplatin-induced Sprague-Dawley rat allodynia model assessed as increase in paw withdrawal latency time at 3.28 mg/kg, sc administered daily up to day 6 measured on day 7 post last dose by Von Frey test relative to control
# Rattus norvegicus [33] = experiment: Antiallodynic activity in oxaliplatin-induced Sprague-Dawley rat allodynia model assessed as increase in paw withdrawal latency time at 3.42 mg/kg, sc administered daily up to day 13 measured on day 14 post last dose by Von Frey test relative to control
# Rattus norvegicus [34] = experiment: Antihypersensitivity in oxaliplatin-induced Sprague-Dawley rat hyperalgesia model assessed as weight tolerated on posterior paw at 3.42 mg/kg, sc administered daily for 7 days post oxaliplatin challenge measured on day 7 post last dose by analgesimeter (reference value: 46.1 +/- 0.5 g)
# Rattus norvegicus [35] = experiment: Antihypersensitivity in oxaliplatin-induced Sprague-Dawley rat thermal hyperalgesia model assessed as paw withdrawal latency time at 3.42 mg/kg, sc administered daily up to day 6 measured on day 7 post last dose by plantar test (reference value: 9 +/- 1 secs)
# Rattus norvegicus [36] = experiment: Antiallodynic activity in oxaliplatin-induced Sprague-Dawley rat allodynia model assessed as paw withdrawal latency time at 3.42 mg/kg, sc administered daily up to day 13 measured on day 14 post last dose by cold plate test (reference value: 12 +/- 1.2 secs)
# Rattus norvegicus [37] = experiment: Antihypersensitivity in oxaliplatin-induced Sprague-Dawley rat hyperalgesia model assessed as increase in weight tolerated on posterior paw at 3.42 mg/kg, sc administered daily up to day 13 measured on day 14 post last dose by analgesimeter relative to control
# Rattus norvegicus [38] = experiment: Antiallodynic activity in oxaliplatin-induced Sprague-Dawley rat allodynia model assessed as paw withdrawal latency time at 3.42 mg/kg, sc administered daily up to day 6 measured on day 7 post last dose by cold plate test (reference value: 14.3 +/- 0.3 secs)
# Rattus norvegicus [39] = experiment: Antihypersensitivity in oxaliplatin-induced Sprague-Dawley rat thermal hyperalgesia model assessed as paw withdrawal latency time at 3.42 mg/kg, sc administered daily up to day 13 measured on day 14 post last dose by plantar test (reference value: 10.6 +/- 0.5 secs)
# Rattus norvegicus [40] = experiment: Antiallodynic activity in oxaliplatin-induced Sprague-Dawley rat allodynia model assessed as paw withdrawal latency time at 3.42 mg/kg, sc administered daily up to day 6 measured on day 7 post last dose by Von Frey test (reference value: 12.4 +/- 1.2 secs)
structure (smiles),measurement,setting,value
Cc1ccccc1CSc1ccc(-c2ccccn2)nn1,Time,Rattus norvegicus [1],22.5 s
same,Time,Rattus norvegicus [2],18.3 s
same,Activity,Rattus norvegicus [3],75.9%
same,Activity,Rattus norvegicus [4],76.4%
same,Time,Rattus norvegicus [5],17 s
same,Activity,Rattus norvegicus [6],51.3%
same,Activity,Rattus norvegicus [7],67.1%
same,Time,Rattus norvegicus [8],14.1 s
c1ccc(-c2ccc(SCc3nc4ccccc4s3)nn2)nc1,Time,Rattus norvegicus [9],14.3 s
same,Time,Rattus norvegicus [10],15.8 s
same,Time,Rattus norvegicus [11],16.3 s
same,Activity,Rattus norvegicus [12],72.5%
same,Time,Rattus norvegicus [13],16.4 s
same,Time,Rattus norvegicus [14],15.8 s
same,Activity,Rattus norvegicus [15],54.7 g
c1ccc(-c2ccc(SCc3ccc4ccccc4n3)nn2)nc1,Time,Rattus norvegicus [16],13.5 s
same,Time,Rattus norvegicus [17],13.7 s
same,Activity,Rattus norvegicus [18],31.7%
same,Activity,Rattus norvegicus [19],67.8%
same,Time,Rattus norvegicus [20],14.5 s
same,Activity,Rattus norvegicus [21],48.4 g
same,Time,Rattus norvegicus [22],15.6 s
same,Time,Rattus norvegicus [23],11.6 s
same,Activity,Rattus norvegicus [24],33%
c1ccc(-c2ccc(SCc3ccc4ccccc4c3)nn2)nc1,Time,Rattus norvegicus [16],17.6 s
same,Time,Rattus norvegicus [2],15.5 s
same,Activity,Rattus norvegicus [18],40.1%
same,Time,Rattus norvegicus [20],16 s
same,Activity,Rattus norvegicus [21],51.9 g
same,Time,Rattus norvegicus [22],16.5 s
same,Time,Rattus norvegicus [23],14.2 s
same,Activity,Rattus norvegicus [24],53%
c1ccc(-c2ccc(SCc3cccc4nonc34)nn2)nc1,Time,Rattus norvegicus [25],23.8 s
same,Time,Rattus norvegicus [26],19.4 s
same,Time,Rattus norvegicus [27],22 s
same,Activity,Rattus norvegicus [28],58.6 g
same,Time,Rattus norvegicus [29],15.2 s
same,Activity,Rattus norvegicus [30],62.8 g
same,Time,Rattus norvegicus [31],18.7 s
same,Activity,Rattus norvegicus [32],62.8%
c1ccc(-c2ccc(SCc3cc4ccccc4s3)nn2)nc1,Activity,Rattus norvegicus [33],64.3%
same,Activity,Rattus norvegicus [34],55.3 g
same,Time,Rattus norvegicus [35],12.8 s
same,Time,Rattus norvegicus [36],17.5 s
same,Activity,Rattus norvegicus [37],86.2%
same,Time,Rattus norvegicus [38],17.8 s
same,Time,Rattus norvegicus [39],15.1 s
c1ccc(-c2ccc(SCc3cccc4cccnc34)nn2)nc1,Time,Rattus norvegicus [16],17.6 s
same,Time,Rattus norvegicus [2],13.8 s
same,Activity,Rattus norvegicus [18],44.3%
same,Time,Rattus norvegicus [40],18.8 s
same,Time,Rattus norvegicus [20],18 s
same,Activity,Rattus norvegicus [21],51.3 g
same,Time,Rattus norvegicus [22],18 s
same,Time,Rattus norvegicus [23],12.5 s
same,Activity,Rattus norvegicus [24],68.7%
